Key:
ERa = target: T1, ERa (Homo sapiens, UniProt P03372); experiment: ERa degradation in ERa-positive breast cancer cell lines; type: cell-based; settings: multiple ERa-positive breast cancer cell lines, such as MCF7
T1 sequence (P03372 1-595): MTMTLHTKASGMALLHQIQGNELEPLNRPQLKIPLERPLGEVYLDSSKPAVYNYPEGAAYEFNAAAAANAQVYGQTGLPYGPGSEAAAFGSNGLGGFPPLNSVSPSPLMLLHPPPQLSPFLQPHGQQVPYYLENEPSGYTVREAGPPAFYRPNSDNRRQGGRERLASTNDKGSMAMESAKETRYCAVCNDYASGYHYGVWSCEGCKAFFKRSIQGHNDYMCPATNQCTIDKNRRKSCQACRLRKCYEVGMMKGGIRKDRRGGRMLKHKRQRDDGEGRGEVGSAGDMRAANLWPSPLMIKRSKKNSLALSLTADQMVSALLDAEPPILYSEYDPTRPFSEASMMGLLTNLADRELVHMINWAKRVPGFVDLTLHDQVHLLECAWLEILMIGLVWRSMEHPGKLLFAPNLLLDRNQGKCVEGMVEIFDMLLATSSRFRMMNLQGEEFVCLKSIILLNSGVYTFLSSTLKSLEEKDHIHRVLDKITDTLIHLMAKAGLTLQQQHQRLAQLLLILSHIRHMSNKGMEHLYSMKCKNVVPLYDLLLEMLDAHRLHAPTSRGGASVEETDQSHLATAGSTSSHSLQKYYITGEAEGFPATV

[1] = rat, in vivo, po
[2] = tested on: ER+/HER2− locally advanced or metastatic breast cancer; experiment: Phase 1 study: anti-tumor activity (RECIST v1.1; ORR, CBR, best objective response); type: in vivo, human; settings: for ORR (CR + PR) - n (%): RECIST 1.1, Investigator assessment; for Response - n (%): RECIST 1.1, efficacy evaluable set; for Confirmed Complete Response (cCR) / Confirmed Partial Response (cPR): confirmed by second assessment at least 4 weeks after first
Experimental: The study employed an open-label, 3+3 design, with the option of adding backfill patients to each cohort cleared and deemed safe. […] Compound (1-g) was administered orally once daily in 28-day cycles. Tumor responses were assessed every 2 cycles using RECIST v1.1 criteria. Therefore, the initial dose of 100 mg QD was chosen to limit the number of patients exposed to lower efficacious dose levels, while adding an additional 2.5-fold safety margin. The study also involves an ongoing dose escalation study where participants receive 100 mg, 200 mg, 300 mg, 400 mg, and 600 mg once daily (QD) dose levels.
Response and progression will be evaluated in this study using RECIST Version 1.1. Lesions are either measurable or non-measurable according to the criteria. The actual number of dose levels to be explored in this study depended on determination of the non-tolerable dose based on DLTs. Other safety data, as well as PK profiles observed during the conduct of the study and any trends for anti-tumor activity were collected. Treatment cycles occurred consecutively. Evaluation of a cohort of at least 3 patients completing 1 cycle of treatment (28 days) is required prior to proceeding to the next dose level. In addition, selected dose levels may be expanded to approximately 20 patients (per dose level).
All efficacy analyses were performed using the Efficacy Evaluable Analysis Set. Objective Response Rate (ORR), defined as the proportion of patients who have measurable disease at baseline with confirmed […] or partial response (PR) (i.e., 2 CRs or PRs at least 4 weeks apart) according to the RECIST Version 1.1 criteria. Clinical Benefit Rate (CBR), defined as the proportion of patients with CR, PR, or stable disease (SD) (where SD is ≥24 weeks) according to the RECIST Version 1.1 criteria. Duration of Response (DOR), defined as the time between first documentation of a response (CR or PR) and first evidence of PD according to RECIST v1.1 or death due to any cause. […] Progression Free Survival (PFS), defined as the time from the first day of study drug administration (Day 1) until disease progression as defined by the RECIST Version 1.1 criteria, or death on study, whichever occurs first. Patients who are alive and free from disease progression were censored at the date of last tumor assessment. For ORR and CBR, estimates and the associated 95% CIs (based on the Clopper-Pearson method), at each dose level were calculated. The absolute and relative difference in ORR and CBR between the two treatment groups was presented. For PFS, Kaplan-Meier curves were generated and the median time to event, and the associated 95% CIs were provided. The hazard ratio and the 95% CIs for these endpoints between the two treatment groups was calculated.
The overall response is evaluated according to the criteria in Table 4.
The objective response rate (ORR) and the clinical benefit rate (CBR) were assessed for the participants. The clinical benefit rate (CBR), as used herein, is defined as confirmed complete response or partial response at any time and stable disease over ≥24 weeks. Evaluable participants need to complete an adequate post-treatment scan. Participants with SD who remain on study <6 months are not included in the denominator.

In the case of O=C1CC[C@H](N2Cc3cc(N4CCN(CC5CCN(c6ccc([C@@H]7c8ccc(O)cc8OC[C@@H]7c7ccccc7)cc6F)CC5)CC4)ccc3C2=O)C(=O)N1 [compound (1-g), (S)-3-(5-(4-((1-(2-fluoro-4-((3S,4R)-7-hydroxy-3-phenylchroman-4-yl)phenyl)piperidin-4-yl)methyl)piperazin-1-yl)-1-oxoisoindolin-2-yl)piperidine-2,6-dione], the ERa degradation (ERa) was “induces rapid ERa degradation”, the “severely toxic dose in 10% of animals (STD10)” value (female, rat, in vivo, po, 28 day) was 270 mg/kg/day and the off-target adverse toxicities (rat, in vivo) was “no off-target adverse toxicities observed”. For the same molecule, the key organ effects (rats, 28-day GLP) was “considered on target pharmacological effects”, the “presence in mammary gland tissue, ovaries and uterus” value [1] was “quantifiable in mammary gland tissue” and the tissue exposure [1] was “highest exposures were observed in the large and small intestine with limited exposure to the brain”. For the same molecule, the “Non-Response - n (%)” value ([2]; Cohort 1 (100 mg QD), N = 2) was 1 (50.0) n (%), the “Not Applicable (NA)” value ([2]; Cohort 1 (100 mg QD), N = 2) was 0 n (%) and the “Not Evaluable (NE)” value ([2]; Cohort 1 (100 mg QD), N = 2) was 0 n (%). For the same molecule, the “Progressive Disease (PD)” value ([2]; Cohort 1 (100 mg QD), N = 2) was 0 n (%), the “Unconfirmed Complete Response (uCR)” value ([2]; Cohort 1 (100 mg QD), N = 2) was 0 n (%) and the “Unconfirmed Partial Response (uPR)” value ([2]; Cohort 1 (100 mg QD), N = 2) was 0 n (%). For the same molecule, the “ORR (CR + PR) - n (%)” value ([2]; Cohort 1 (100 mg QD), N = 2) was 1 (50.0) n (%), the “Response - n (%)” value ([2]; Cohort 1 (100 mg QD), N = 2) was 1 (50.0) n (%) and the “Confirmed Complete Response (cCR)” value ([2]; Cohort 1 (100 mg QD), N = 2) was 0 n (%). The “Confirmed Partial Response (cPR)” value ([2]; Cohort 1 (100 mg QD), N = 2) was 1 (50.0) n (%), the “Non-Response - n (%)” value ([2]; Cohort 2 (200 mg QD), N = 8) was 6 (75.0) n (%) and the “Not Applicable (NA)” value ([2]; Cohort 2 (200 mg QD), N = 8) was 0 n (%). The “Not Evaluable (NE)” value ([2]; Cohort 2 (200 mg QD), N = 8) was 1 (12.5) n (%), the “Progressive Disease (PD)” value ([2]; Cohort 2 (200 mg QD), N = 8) was 2 (25.0) n (%) and the “Unconfirmed Complete Response (uCR)” value ([2]; Cohort 2 (200 mg QD), N = 8) was 0 n (%). The “Unconfirmed Partial Response (uPR)” value ([2]; Cohort 2 (200 mg QD), N = 8) was 0 n (%), the “ORR (CR + PR) - n (%)” value ([2]; Cohort 2 (200 mg QD), N = 8) was 2 (25.0) n (%) and the “Response - n (%)” value ([2]; Cohort 2 (200 mg QD), N = 8) was 2 (25.0) n (%). For the same molecule, the “Confirmed Complete Response (cCR)” value ([2]; Cohort 2 (200 mg QD), N = 8) was 0 n (%), the “Confirmed Partial Response (cPR)” value ([2]; Cohort 2 (200 mg QD), N = 8) was 2 (25.0) n (%) and the “Non-Response - n (%)” value ([2]; Cohort 3 (300 mg QD), N = 9) was 8 (88.9) n (%). For the same molecule, the “Not Applicable (NA)” value ([2]; Cohort 3 (300 mg QD), N = 9) was 0 n (%), the “Not Evaluable (NE)” value ([2]; Cohort 3 (300 mg QD), N = 9) was 0 n (%) and the “Progressive Disease (PD)” value ([2]; Cohort 3 (300 mg QD), N = 9) was 4 (44.4) n (%). The “Unconfirmed Complete Response (uCR)” value ([2]; Cohort 3 (300 mg QD), N = 9) was 0 n (%), the “Unconfirmed Partial Response (uPR)” value ([2]; Cohort 3 (300 mg QD), N = 9) was 0 n (%) and the “ORR (CR + PR) - n (%)” value ([2]; Cohort 3 (300 mg QD), N = 9) was 1 (11.1) n (%). For the same molecule, the “Response - n (%)” value ([2]; Cohort 3 (300 mg QD), N = 9) was 1 (11.1) n (%), the “Confirmed Complete Response (cCR)” value ([2]; Cohort 3 (300 mg QD), N = 9) was 0 n (%) and the “Confirmed Partial Response (cPR)” value ([2]; Cohort 3 (300 mg QD), N = 9) was 1 (11.1) n (%). For the same molecule, the “Non-Response - n (%)” value ([2]; Cohort 4 (400 mg QD), N = 4) was 4 (100) n (%), the “Not Applicable (NA)” value ([2]; Cohort 4 (400 mg QD), N = 4) was 0 n (%) and the “Not Evaluable (NE)” value ([2]; Cohort 4 (400 mg QD), N = 4) was 0 n (%). The “Progressive Disease (PD)” value ([2]; Cohort 4 (400 mg QD), N = 4) was 2 (50.0) n (%), the “Unconfirmed Complete Response (uCR)” value ([2]; Cohort 4 (400 mg QD), N = 4) was 0 n (%) and the “Unconfirmed Partial Response (uPR)” value ([2]; Cohort 4 (400 mg QD), N = 4) was 0 n (%). For the same molecule, the “ORR (CR + PR) - n (%)” value ([2]; Cohort 4 (400 mg QD), N = 4) was 0 n (%), the “Response - n (%)” value ([2]; Cohort 4 (400 mg QD), N = 4) was 0 n (%) and the “Confirmed Complete Response (cCR)” value ([2]; Cohort 4 (400 mg QD), N = 4) was 0 n (%). The “Confirmed Partial Response (cPR)” value ([2]; Cohort 4 (400 mg QD), N = 4) was 0 n (%), the “Non-Response - n (%)” value ([2]; Cohort 5 (600 mg QD), N = 3) was 3 (100) n (%) and the “Not Applicable (NA)” value ([2]; Cohort 5 (600 mg QD), N = 3) was 0 n (%). For the same molecule, the “Not Evaluable (NE)” value ([2]; Cohort 5 (600 mg QD), N = 3) was 0 n (%), the “Progressive Disease (PD)” value ([2]; Cohort 5 (600 mg QD), N = 3) was 0 n (%) and the “Unconfirmed Complete Response (uCR)” value ([2]; Cohort 5 (600 mg QD), N = 3) was 0 n (%). The “Unconfirmed Partial Response (uPR)” value ([2]; Cohort 5 (600 mg QD), N = 3) was 0 n (%), the “Response - n (%)” value ([2]; Cohort 5 (600 mg QD), N = 3) was 0 n (%) and the “Confirmed Complete Response (cCR)” value ([2]; Cohort 5 (600 mg QD), N = 3) was 0 n (%). The “Confirmed Partial Response (cPR)” value ([2]; Cohort 5 (600 mg QD), N = 3) was 0 n (%), the “Non-Response - n (%)” value ([2]; Overall, N = 26) was 22 (84.6) n (%) and the “Not Applicable (NA)” value ([2]; Overall, N = 26) was 0 n (%). The “Not Evaluable (NE)” value ([2]; Overall, N = 26) was 1 (3.8) n (%), the “Progressive Disease (PD)” value ([2]; Overall, N = 26) was 8 (30.8) n (%) and the “Unconfirmed Complete Response (uCR)” value ([2]; Overall, N = 26) was 0 n (%). The “Unconfirmed Partial Response (uPR)” value ([2]; Overall, N = 26) was 0 n (%), the “ORR (CR + PR) - n (%)” value ([2]; Overall, N = 26) was 4 (15.4) n (%) and the “Response - n (%)” value ([2]; Overall, N = 26) was 4 (15.4) n (%). For the same molecule, the “Confirmed Complete Response (cCR)” value ([2]; Overall, N = 26) was 0 n (%) and the “Confirmed Partial Response (cPR)” value ([2]; Overall, N = 26) was 4 (15.4) n (%).

Reference: patent publication US20250381179A1, “CHROMAN-BASED COMPOUNDS FOR TREATING CANCER” (priority 2024, published 2025)
